Measured values as given in paper PMC5522050, “Sulfatinib, a novel kinase inhibitor, in patients with advanced solid tumors: results from a phase I study” (Oncotarget, 2017).
Like-named read-outs stand apart in the source and are kept apart here.

Tests used:
advanced solid tumors = assay: tumor response by RECIST Version 1.0; format: in vivo, human
Method: Patients with NETs were enrolled with priority as preliminary efficacy was shown in these tumor types in the dose-escalation stage. Tumor response (an exploratory endpoint) was assessed according to RECIST Version 1.0 and measured at baseline, at the end of every treatment cycle in the first four cycles, and every other cycle thereafter. […] Calculations of the following parameters were made: ORR (CR + PR); SD defined as ≥1 assessment of SD at least six weeks after study entry; DCR (CR + PR + SD). TTR, DoR and PFS were analyzed in the subgroup of patients with NET.

278 other kinases = assay: kinase selectivity profile (broad kinase screening); format: biochemical
Text: (§1) Table 1 Sulfatinib kinase selectivity profile | column: IC50 (μM)

[1] = test system: patients with advanced solid tumors; assay: phase I safety and tolerability (AEs, DLTs, MTD); format: in vivo; settings: doses of 50-350 mg QD and 125-150 mg BID; up to 350 mg QD (formulation 2)
Text: The primary objectives of this open-label, first-in-human phase I study (NCT02133157) were to determine MTD and the phase II dose of sulfatinib, and to evaluate the safety of sulfatinib in patients with advanced solid tumors. The secondary and exploratory objectives included evaluation of sulfatinib PK and preliminary anti-tumor activity. The study consisted of a dose-escalation phase (split into a single-dose period and continuous-dose period) and a tumor-specific expansion phase. Two sulfatinib formulations were used during the study: formulation 1 (5, 25, and 50 mg capsules) and formulation 2 (50 and 200 mg capsules). […]
During the dose-escalation phase, patients were given a single dose of sulfatinib and monitored for AEs for seven days. […] DLTs were assessed at the end of the 28-day period. […]
The study used a modified Fibonacci 3+3 dose-escalation design with at least three evaluable patients treated with each dose. […] If two or more of the first three or overall six patients experienced a DLT, the MTD was considered exceeded and the previous lower dose would be re-assessed to determine the MTD. […]
Safety and tolerability were assessed in all patients who received at least one dose of sulfatinib throughout the study. AEs were recorded throughout the study. […]

CSF1R = CSF1R (Homo sapiens, UniProt P07333); assay: kinase selectivity profile; format: biochemical
Text: as §1

FGFR1 = FGFR1 (Homo sapiens, UniProt P11362); assay: kinase selectivity profile; format: biochemical
Text: as §1

VEGFR 3 = VEGFR 3 (Homo sapiens, UniProt P35916); assay: kinase selectivity profile; format: biochemical
Text: as §1

VEGFR 2 = VEGFR 2 (Homo sapiens, UniProt P35968); assay: kinase selectivity profile; format: biochemical
Text: as §1

VEGFR 1 = VEGFR 1 (Homo sapiens, UniProt P17948); assay: kinase selectivity profile; format: biochemical
Text: as §1

FLT3 = molecular target: T1, FLT3 (Homo sapiens, UniProt P36888); assay: kinase selectivity profile; format: biochemical
T1 sequence (P36888 27-993): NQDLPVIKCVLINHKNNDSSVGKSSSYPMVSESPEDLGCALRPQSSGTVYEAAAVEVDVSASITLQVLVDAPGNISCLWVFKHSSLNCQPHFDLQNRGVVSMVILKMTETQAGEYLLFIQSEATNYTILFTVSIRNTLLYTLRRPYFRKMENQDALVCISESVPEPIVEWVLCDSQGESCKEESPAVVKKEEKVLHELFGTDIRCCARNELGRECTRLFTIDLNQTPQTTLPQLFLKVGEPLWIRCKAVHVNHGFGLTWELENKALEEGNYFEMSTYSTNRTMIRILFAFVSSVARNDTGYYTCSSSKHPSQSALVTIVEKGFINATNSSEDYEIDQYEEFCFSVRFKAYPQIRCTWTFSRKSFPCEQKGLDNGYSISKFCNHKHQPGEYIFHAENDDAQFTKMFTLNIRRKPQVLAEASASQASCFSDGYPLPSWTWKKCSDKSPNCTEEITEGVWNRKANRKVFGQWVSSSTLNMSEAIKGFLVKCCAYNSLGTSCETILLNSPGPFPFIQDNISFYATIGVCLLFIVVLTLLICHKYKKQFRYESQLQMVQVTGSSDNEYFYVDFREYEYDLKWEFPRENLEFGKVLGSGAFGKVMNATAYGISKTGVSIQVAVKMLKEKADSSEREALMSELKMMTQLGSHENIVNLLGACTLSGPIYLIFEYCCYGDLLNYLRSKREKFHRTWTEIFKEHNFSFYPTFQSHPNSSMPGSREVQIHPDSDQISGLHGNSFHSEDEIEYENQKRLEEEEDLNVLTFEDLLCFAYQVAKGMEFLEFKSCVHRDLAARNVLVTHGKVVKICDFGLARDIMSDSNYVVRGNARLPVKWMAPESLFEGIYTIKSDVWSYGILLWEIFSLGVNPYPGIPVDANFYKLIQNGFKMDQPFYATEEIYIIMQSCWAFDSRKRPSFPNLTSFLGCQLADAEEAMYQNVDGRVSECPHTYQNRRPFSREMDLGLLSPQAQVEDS
Text: as §1

TrkB = TrkB (Homo sapiens, UniProt Q16620); assay: kinase selectivity profile; format: biochemical
Text: as §1

pancreatic NET patients [2] = test system: pancreatic NET patients; parameters: method as in PMID 21306237; settings: phase III trial; cited from earlier work
pancreatic NET patients [3] = test system: pancreatic NET patients; parameters: method as in PMID 21306238; settings: phase III trial; cited from earlier work
GI and lung NET patients = test system: GI and lung NET patients; parameters: method as in PMID 26703889; settings: phase III trial; cited from earlier work
[4] = three NET patients who progressed on prior VEGFR kinase inhibitors

Chain of VEGFR 1 (P17948 27-1338): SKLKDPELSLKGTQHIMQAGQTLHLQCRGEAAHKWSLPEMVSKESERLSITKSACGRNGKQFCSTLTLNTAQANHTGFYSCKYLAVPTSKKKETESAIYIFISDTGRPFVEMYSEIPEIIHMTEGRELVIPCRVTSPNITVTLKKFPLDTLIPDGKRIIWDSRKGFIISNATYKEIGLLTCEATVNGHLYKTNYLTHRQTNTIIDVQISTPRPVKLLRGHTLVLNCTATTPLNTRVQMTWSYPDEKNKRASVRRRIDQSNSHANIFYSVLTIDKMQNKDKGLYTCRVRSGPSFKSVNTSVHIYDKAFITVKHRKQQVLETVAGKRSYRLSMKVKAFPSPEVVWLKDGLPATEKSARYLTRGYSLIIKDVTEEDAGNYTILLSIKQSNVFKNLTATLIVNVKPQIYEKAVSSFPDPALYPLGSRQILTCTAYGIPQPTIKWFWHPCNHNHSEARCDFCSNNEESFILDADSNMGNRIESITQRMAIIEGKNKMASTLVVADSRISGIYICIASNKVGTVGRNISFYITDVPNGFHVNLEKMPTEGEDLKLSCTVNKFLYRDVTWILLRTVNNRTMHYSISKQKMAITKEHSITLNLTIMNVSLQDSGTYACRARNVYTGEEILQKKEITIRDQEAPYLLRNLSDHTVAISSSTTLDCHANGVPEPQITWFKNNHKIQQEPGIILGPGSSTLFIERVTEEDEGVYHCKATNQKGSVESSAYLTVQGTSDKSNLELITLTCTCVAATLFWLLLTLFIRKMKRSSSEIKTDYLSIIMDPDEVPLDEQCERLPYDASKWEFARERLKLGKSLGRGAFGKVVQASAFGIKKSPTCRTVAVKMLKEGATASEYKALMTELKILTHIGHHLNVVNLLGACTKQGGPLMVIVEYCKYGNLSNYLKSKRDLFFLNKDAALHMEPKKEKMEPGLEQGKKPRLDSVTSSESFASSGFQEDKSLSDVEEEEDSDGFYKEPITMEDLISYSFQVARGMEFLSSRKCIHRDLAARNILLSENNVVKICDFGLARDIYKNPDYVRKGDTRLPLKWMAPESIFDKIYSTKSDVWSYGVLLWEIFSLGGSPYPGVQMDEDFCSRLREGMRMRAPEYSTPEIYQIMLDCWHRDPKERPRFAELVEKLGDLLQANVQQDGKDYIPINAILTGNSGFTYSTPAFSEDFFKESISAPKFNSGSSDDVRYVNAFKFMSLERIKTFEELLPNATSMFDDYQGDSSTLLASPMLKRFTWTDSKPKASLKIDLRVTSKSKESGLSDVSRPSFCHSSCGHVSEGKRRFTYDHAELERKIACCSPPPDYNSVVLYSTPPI
Chain of VEGFR 3 (P35916 25-1363): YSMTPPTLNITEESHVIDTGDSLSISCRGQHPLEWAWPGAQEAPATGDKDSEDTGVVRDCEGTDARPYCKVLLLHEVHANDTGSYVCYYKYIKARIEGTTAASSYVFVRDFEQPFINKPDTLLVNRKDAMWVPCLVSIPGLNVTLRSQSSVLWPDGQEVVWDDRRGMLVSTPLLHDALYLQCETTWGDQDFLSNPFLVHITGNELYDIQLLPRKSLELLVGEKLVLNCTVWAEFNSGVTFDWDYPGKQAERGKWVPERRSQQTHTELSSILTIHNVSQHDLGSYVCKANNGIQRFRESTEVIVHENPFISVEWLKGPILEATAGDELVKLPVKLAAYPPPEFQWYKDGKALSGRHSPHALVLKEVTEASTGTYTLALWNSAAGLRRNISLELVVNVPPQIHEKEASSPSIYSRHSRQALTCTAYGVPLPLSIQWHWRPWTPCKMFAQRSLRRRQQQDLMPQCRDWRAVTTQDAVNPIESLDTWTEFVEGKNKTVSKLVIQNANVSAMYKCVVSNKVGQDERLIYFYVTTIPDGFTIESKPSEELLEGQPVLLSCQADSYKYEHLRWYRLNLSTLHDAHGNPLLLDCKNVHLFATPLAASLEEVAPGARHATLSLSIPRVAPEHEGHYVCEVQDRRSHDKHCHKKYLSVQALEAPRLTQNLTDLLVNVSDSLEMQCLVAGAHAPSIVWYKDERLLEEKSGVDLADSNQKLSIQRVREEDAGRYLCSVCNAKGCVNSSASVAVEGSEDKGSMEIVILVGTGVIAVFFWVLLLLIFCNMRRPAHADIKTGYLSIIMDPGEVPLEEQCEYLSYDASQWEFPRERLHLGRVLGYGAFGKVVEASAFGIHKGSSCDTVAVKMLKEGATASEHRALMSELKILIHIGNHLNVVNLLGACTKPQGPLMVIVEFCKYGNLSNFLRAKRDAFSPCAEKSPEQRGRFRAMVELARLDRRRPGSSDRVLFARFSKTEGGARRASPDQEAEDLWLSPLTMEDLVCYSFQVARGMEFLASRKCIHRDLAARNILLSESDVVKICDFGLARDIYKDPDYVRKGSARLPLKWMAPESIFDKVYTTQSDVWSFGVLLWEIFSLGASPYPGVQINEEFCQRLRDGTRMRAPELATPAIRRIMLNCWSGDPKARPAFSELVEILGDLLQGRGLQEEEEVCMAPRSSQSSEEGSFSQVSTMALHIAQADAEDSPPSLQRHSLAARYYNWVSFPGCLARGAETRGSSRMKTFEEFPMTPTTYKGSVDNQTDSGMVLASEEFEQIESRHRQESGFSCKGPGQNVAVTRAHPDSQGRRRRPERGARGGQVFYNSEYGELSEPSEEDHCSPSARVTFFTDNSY
Chain of CSF1R (P07333 20-972): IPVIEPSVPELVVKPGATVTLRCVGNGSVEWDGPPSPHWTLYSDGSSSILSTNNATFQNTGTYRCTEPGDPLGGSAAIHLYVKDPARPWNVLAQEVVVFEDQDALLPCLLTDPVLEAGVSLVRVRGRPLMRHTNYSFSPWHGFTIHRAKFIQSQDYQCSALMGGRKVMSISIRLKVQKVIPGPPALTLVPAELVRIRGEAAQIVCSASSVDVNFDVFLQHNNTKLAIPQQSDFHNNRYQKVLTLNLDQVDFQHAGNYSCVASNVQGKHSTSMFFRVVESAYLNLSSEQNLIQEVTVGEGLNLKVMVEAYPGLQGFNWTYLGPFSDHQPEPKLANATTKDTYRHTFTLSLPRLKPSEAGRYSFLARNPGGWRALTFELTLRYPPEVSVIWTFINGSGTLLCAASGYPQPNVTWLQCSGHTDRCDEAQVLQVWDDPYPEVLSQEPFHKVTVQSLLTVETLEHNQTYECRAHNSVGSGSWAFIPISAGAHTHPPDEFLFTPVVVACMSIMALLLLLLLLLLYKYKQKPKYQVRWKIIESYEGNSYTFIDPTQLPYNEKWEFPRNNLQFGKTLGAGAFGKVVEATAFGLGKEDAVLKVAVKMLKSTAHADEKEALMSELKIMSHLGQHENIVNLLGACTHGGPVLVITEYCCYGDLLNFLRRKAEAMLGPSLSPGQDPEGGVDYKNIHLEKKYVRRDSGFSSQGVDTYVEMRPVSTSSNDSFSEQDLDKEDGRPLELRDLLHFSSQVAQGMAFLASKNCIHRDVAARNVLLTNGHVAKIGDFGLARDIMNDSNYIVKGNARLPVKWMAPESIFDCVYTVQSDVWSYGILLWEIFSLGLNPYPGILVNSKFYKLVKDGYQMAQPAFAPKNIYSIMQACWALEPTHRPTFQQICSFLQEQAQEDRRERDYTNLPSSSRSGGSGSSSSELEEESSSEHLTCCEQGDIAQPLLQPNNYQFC
Chain of VEGFR 2 (P35968 20-1356): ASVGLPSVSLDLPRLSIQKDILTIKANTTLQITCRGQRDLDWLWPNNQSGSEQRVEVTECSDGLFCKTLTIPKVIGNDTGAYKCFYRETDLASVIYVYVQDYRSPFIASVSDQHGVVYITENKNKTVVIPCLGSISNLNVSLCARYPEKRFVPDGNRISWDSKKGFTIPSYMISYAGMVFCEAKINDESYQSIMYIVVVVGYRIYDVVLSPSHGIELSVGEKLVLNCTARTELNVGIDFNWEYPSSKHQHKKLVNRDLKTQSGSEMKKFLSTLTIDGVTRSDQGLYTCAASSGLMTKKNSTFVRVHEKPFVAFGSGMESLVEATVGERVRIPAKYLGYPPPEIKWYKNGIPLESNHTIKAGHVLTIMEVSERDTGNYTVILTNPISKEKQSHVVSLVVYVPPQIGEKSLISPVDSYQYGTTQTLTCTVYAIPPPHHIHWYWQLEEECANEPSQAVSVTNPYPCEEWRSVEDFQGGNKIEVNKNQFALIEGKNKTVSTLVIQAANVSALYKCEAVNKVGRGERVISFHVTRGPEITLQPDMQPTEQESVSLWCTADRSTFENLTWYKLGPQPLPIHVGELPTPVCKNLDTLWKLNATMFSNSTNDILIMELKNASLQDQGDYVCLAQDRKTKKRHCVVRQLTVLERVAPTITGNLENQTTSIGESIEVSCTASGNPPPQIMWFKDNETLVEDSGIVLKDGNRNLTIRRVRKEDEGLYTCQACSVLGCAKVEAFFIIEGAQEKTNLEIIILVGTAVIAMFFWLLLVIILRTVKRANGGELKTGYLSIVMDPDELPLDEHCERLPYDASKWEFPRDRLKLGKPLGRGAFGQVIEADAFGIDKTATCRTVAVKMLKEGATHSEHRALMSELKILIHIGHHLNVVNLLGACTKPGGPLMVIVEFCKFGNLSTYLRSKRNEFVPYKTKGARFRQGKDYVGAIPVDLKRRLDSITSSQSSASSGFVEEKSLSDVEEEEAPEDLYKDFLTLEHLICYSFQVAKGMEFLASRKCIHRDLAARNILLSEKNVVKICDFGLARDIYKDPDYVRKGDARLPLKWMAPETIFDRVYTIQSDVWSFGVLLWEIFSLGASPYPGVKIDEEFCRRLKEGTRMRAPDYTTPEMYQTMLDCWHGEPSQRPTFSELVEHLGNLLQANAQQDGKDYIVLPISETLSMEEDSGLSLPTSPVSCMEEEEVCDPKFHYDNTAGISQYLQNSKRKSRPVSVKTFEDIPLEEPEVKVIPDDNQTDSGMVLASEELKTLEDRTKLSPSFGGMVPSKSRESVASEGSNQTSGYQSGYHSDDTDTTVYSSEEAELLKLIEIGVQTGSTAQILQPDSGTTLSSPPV

For `Cc1cc2cc(Oc3ccnc(Nc4cccc(CS(=O)(=O)NCCN(C)C)c4)n3)ccc2[nH]1` [Sulfatinib], the “patients with confirmed PR” value (advanced solid tumors; all 77 patients) was “Nine”, the “patients with sustainable SD” value (advanced solid tumors; all 77 patients) was 23 and the “objective response rate (ORR)” value (advanced solid tumors; all 77 patients (9/77)) was 11.7%. The “disease control rate (DCR)” value (advanced solid tumors; all 77 patients (32/77)) was 41.6%, the “patients achieving PR” value (advanced solid tumors; [4]) was “one” and the “patients achieving SD” value (advanced solid tumors; [4]) was “two”. The IC50 (278 other kinases) was over 0.15 µM, the “maximum tolerated dose (MTD)” value [1] was “not reached” and the IC50 (CSF1R) was 0.004 µM. The IC50 (FGFR1) was 0.015 µM, the IC50 (VEGFR 3) was 0.001 µM and the IC50 (VEGFR 2) was 0.024 µM. The IC50 (VEGFR 1) was 0.002 µM, the IC50 (FLT3) was 0.067 µM and the IC50 (TrkB) was 0.041 µM.

In the case of `CCN(CC)CCNC(=O)c1c(C)[nH]c(/C=C2\C(=O)Nc3ccc(F)cc32)c1C` [sunitinib], the ORR (pancreatic NET patients [2]) is listed as 9.3% and the PFS (pancreatic NET patients [2]) is listed as 11.0 months.

In the case of `CO[C@H]1C[C@@H]2CC[C@@H](C)[C@@](O)(O2)C(=O)C(=O)N2CCCC[C@H]2C(=O)O[C@H]([C@H](C)C[C@@H]2CC[C@@H](OCCO)[C@H](OC)C2)CC(=O)[C@H](C)/C=C(\C)[C@@H](O)[C@@H](OC)C(=O)[C@H](C)C[C@H](C)/C=C/C=C/C=C/1C` [everolimus], the ORR (pancreatic NET patients [3]) is given as 5%, the “median PFS” value (pancreatic NET patients [3]) is given as 11.0 months and the ORR (GI and lung NET patients) is given as 2%. For the same compound, the “median PFS” value (GI and lung NET patients) was 11.0 months.
